# Assay results reported in paper PMC8386747, “Structure–activity relationship, in vitro and in vivo evaluation of novel dienyl sulphonyl fluorides as selective BuChE inhibitors for the treatment of Alzheimer's disease” (Journal of Enzyme Inhibition and Medicinal Chemistry, 2021).
# Like-named read-outs stand apart in the source and are kept apart here.
# Legend:
# in vitro = conditions: PAMPA
# Procedure: (§1) The 96-well UV plate (COSTAR) was manufactured by Corning Corporation, USA, and the commercially available drugs and test compounds were initially dissolved in DMSO at a concentration of 20 mg/mL. The solution was then diluted 200-fold with PBS (pH 7.4 ± 0.1)/EtOH (70/30, v/v) solution to a final concentration of 100 µg/mL.
# (§2) The test compound was dissolved in DMSO at 5 mg/mL and diluted 200-fold with universal buffer (final concentration 25 µg/mL) to prepare the secondary stock solution; 200 µL of the secondary stock solution was added to the donor well; the acceptor plate was coated with 4 µL of 20 mg/mL dodecyl porcine polar brain, and then, 200 µL of pH 7.4 universal buffer was added to the acceptor well; the acceptor plate was carefully placed on the donor plate to form a “sandwich” and maintained for 18 h; the drug concentrations in the acceptor, donor and reference wells were determined using a UV microplate reader; the experiment was repeated three times, and the concentrations of the test compound in the donor and acceptor wells were measured using a UV plate spectral reader (PerkinElmer VICT or Nivo, Finland). In at least three independent experiments, each sample was analysed at three wavelengths in a four well.
# [1] = PAMPA-BBB, reported data from the reference; cited from earlier work
# BuChE from equine serum = biological target: T1, BuChE from equine serum (Equus caballus, UniProt P81908); assay: eqBuChE inhibition assay (Ellman's method); assay type: biochemical; conditions: BuChE from horse serum; for IC50: mean ± SEM; for inhibition at 20 µM: read-out: BuChE % inhibition at 20 µM
# T1 construct: BuChE from equine serum (C4290-1KU; Sigma); purchased Sigma C4290-1KU; host or cells: equine serum
# Procedure: (§3) According to the Ellman’s method, assays were performed on AChE from electric eel (C3389-500UN; Sigma) and BuChE from equine serum (C4290-1KU; Sigma). The experiment was performed in 48-well plates in a final volume of 500 µL. Each well contained 0.036 U/mL of eeAChE or eqBuChE, and 0.1 M pH 8 PBS. They were pre-incubated for 20 min at different compound concentrations at 37 °C. […] The DTNB produces the yellow anion 5-thio-2-nitrobenzoic acid along with the enzymatic degradation of ACh or BuCh. Changes in absorbance were measured at 410 nm after 20 min in a PerkinElmer VICTOR Nivo reader. The IC50 values were calculated graphically from inhibition curves (log inhibitor concentration vs percent of inhibition). A control experiment was performed under the same conditions without inhibitor and the blank contained buffer, DMSO, DTNB, and substrate.
# AChE from electric eel = biological target: T2, AChE from electric eel (Electrophorus electricus, UniProt O42275); assay: EeAChE inhibition assay (Ellman's method); assay type: biochemical; conditions: for inhibition at 20 µM: read-out: AChE % inhibition at 20 µM
# T2 construct: assays were performed on AChE from electric eel (C3389-500UN; Sigma); purchased Sigma C3389-500UN
# Procedure: as §3
# [2] = for BBB penetration: PAMPA-BBB class
# Procedure: as §1, §2
# [3] = biological target: T3, recombinant human AChE (hAChE) (Homo sapiens, UniProt P22303); assay: hAChE inhibition assay (Ellman's assay); assay type: biochemical
# T3 construct: purchased Sigma C1682
# Procedure: The solution was diluted to 5 concentrations of 200, 100, 10, 1 and 0.1 µM in ethanol. Measurements were performed using 96-well plates. Buffer (40 µL), sample at a series of concentrations (10 µL), AChE (10 µL), and dibutyl succinate (20 µL) were successively added. The mixture was then incubated for 5 min at 37 °C. Then, 20 µL of ACh or BuCh were added and the reaction started. […] For the blank value, 10 µL of water was used instead of the inhibitor solution. The activity of the inhibitor was expressed as a logarithmic plot of the percentage of enzyme activity (with 100% as the reference) versus the concentration of the compound. IC50 values were determined graphically from inhibition curves (log inhibitor concentration versus percent inhibition).
# [4] = system: Aβ1-42-induced cognitive dysfunction; assay: Morris water maze in Aβ1-42-induced cognitive impairment model; assay type: in vivo, mouse; conditions: mice, Aβ1-42 10 µg icv; 15 mg/kg po Day 3 to Day 14
# Procedure: All experiments were performed according to the National Institutes of Health Guide for the Care and Use of Laboratory Animals. The Measures for the Care and Treatment of Laboratory Animals were approved by the Animal Care and Use Committee of Anhui Medical University. Male ICR mice were used in the animal centre of Anhui Medical University (Hefei). Male mice (18‒24 g) aged 6‒8 weeks, 10 mice per cage, room temperature 22 ± 2 °C, light/dark (12:12 h) cycle. These animals had access to food and water prior to testing. The ambient temperature and relative humidity (50%) of the room remained consistent throughout all tests. Behavioural experiments: MWM was used for cognitive function, and mice were randomly selected for behavioural experiments. Each experimental group consisted of 8‒10 mice/dose. The experimental time was from 08:00 to 14:00, and the mice were sacrificed by cervical dislocation immediately after the end of the experiment. […]. Aβ1-42 aggregation was induced by dissolving the Aβ1-42 peptide in DMSO as a stock solution of 5 mM and incubating it in saline at a final concentration of 2 mg/mL for 24 h at 37 °C.
# The behavioural study was a water maze experimental behavioural study on days 10 − 15, including a 5-day learning and memory training, and a test assessment on day 6. MWM consists of a water-filled pool (grey, circular, 1.20 m in diameter, 0.60 m in height) and a platform with adjustable height and movable position. The pool was divided into four equal quadrants (compass position: NE, NW, SE, SW) using a computerised video tracking system (SMART, version 3.0; Panlab, Spain). The pool was filled with water, generally about 48 cm below the edge, to prevent animals from jumping out, and the water temperature was maintained at 22 ± 1 °C. […] The time to reach the hidden platform (i.e. escape latency), the distance to reach the hidden platform, the distance in the target (NW) area, and the average speed were recorded. […]
# [5] = AChE from electric eel, 20 µM, na = no inhibitory activity at 20 µM
# [6] = AChE from electric eel, mean ± SEM, read-out: AChE IC50
# [7] = pH 7.4, Pe×10^-6cm/s Exp. value, PAMPA-BBB, three independent experiments
# T2 sequence (O42275 24-633): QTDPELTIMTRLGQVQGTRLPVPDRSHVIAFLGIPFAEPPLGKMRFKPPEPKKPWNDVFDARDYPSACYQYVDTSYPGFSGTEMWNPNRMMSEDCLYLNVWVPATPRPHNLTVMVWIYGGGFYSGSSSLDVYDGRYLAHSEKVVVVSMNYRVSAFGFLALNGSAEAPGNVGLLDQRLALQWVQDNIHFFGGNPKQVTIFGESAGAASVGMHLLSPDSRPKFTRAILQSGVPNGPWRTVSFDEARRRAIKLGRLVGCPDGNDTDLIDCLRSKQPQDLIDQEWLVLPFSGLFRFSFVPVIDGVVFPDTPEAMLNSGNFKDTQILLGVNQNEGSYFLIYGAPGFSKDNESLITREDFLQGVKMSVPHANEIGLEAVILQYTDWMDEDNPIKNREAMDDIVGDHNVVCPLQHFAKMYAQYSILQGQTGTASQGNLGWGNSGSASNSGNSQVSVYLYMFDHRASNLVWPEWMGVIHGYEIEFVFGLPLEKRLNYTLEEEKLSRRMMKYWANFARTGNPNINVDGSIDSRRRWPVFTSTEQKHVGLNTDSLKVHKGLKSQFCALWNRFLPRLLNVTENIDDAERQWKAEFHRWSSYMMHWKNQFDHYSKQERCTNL
# T1 sequence (P81908 whole entry): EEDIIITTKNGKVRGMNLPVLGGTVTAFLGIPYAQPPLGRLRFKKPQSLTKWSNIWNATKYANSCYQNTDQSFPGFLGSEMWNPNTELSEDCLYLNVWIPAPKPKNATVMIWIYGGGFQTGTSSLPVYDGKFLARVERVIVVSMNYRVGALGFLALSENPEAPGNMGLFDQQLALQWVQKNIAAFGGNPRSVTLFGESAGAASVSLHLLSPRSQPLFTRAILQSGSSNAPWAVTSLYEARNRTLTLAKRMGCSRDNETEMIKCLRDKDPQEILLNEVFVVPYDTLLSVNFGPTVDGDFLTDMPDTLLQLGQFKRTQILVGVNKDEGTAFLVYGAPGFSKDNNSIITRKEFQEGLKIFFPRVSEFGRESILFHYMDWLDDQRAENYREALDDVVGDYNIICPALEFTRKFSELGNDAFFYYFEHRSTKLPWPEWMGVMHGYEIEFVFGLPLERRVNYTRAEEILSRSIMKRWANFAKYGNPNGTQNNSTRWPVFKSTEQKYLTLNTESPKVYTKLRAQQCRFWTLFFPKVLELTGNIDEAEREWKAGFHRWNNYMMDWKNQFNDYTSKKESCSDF
# T3 sequence (P22303 32-614): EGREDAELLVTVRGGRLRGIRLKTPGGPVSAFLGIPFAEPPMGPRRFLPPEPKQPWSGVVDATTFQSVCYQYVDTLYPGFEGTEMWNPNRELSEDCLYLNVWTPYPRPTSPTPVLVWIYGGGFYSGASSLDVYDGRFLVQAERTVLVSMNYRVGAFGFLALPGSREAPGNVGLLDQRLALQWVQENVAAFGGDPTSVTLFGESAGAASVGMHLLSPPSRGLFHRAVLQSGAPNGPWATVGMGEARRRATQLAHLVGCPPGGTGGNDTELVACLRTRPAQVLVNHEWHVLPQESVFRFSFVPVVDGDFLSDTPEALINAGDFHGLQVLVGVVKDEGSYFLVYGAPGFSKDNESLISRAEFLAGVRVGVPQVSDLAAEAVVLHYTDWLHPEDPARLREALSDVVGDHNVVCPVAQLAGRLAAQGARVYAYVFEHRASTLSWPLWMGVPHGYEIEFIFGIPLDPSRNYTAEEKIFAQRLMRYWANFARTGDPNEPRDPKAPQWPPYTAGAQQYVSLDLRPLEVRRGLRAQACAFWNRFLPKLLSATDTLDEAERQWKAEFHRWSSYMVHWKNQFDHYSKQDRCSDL
SMILES,IC50 (BuChE from equine serum) [nM],inhibition at 20 µM (AChE from electric eel; [5]) [%],other results
"Clc1cccc(Cl)c1N=C1NCCN1 [Clonidine, reference compound]",,,"Papp (in vitro; pH 7.4, Pe×10^-6cm/s Exp. value): 7.85 ×10⁻⁶ cm/s; Pe×10^-6cm/s BibL. value [1]: 5.3 ×10^-6cm/s"
"O=S(=O)(F)C(Br)=CC=Cc1ccccc1 [Compound A1, δ-phenyl-α-Br-dienyl sulphonyl fluoride]",82 ± 7,,
O=S(=O)(F)C(Br)=CC=Cc1ccc(F)cc1 [Compound A2],430 ± 10,,
O=S(=O)(F)C(Br)=CC=Cc1ccc(Cl)cc1 [Compound A3],,,BuChE % inhibition at 20 µM (BuChE from equine serum): 42.2 ± 2.1%; AChE % inhibition at 20 µM (AChE from electric eel; [5]): 33.9 ± 0.9%
O=S(=O)(F)C(Br)=CC=Cc1ccc(Br)cc1 [Compound A4],,,BuChE % inhibition at 20 µM (BuChE from equine serum): 19.2 ± 1.2%
Cc1ccc(C=CC=C(Br)S(=O)(=O)F)cc1 [Compound A5],1720 ± 340,,
COc1ccc(C=CC=C(Br)S(=O)(=O)F)cc1 [Compound A6],310 ± 40,,
O=S(=O)(F)C(Br)=CC=Cc1ccc(-c2ccccc2)cc1 [Compound A7],,11.9 ± 0.5,inhibition at 20 µM (BuChE from equine serum): 45.2 ± 2%
O=S(=O)(F)C(Br)=CC=Cc1ccccc1Br [Compound A8],440 ± 180,,"Papp (in vitro; pH 7.4, Pe, PAMPA-BBB): 10.7 ×10⁻⁶ cm/s; BBB penetration [2]: CNS+ (“CNS +” (high BBB permeation): Pe (× 10^‒6 cm/s) >4.0); Pe×10^-6cm/s Exp. value ([2]; PAMPA-BBB, three independent experiments): 10.7 ×10^-6cm/s; IC50 (AChE from electric eel; [6]): 107 ± 2 nM"
Cc1ccccc1C=CC=C(Br)S(=O)(=O)F [Compound A9],300 ± 110,23.2 ± 4,
O=[N+]([O-])c1ccccc1C=CC=C(Br)S(=O)(=O)F [Compound A11],270 ± 150,,IC50 (AChE from electric eel; [6]): 150 ± 10 nM
O=S(=O)(F)C(Br)=CC=Cc1ccc2ccccc2c1 [Compound A12],2910 ± 260,,
O=S(=O)(F)C(Br)=CC=Cc1cccs1 [Compound A13],320 ± 60,,
O=S(=O)(F)C(Br)=CC=Cc1cccc(Cl)c1 [Compound A14],110 ± 20,17.9 ± 2,
Cc1cccc(C=CC=C(Br)S(=O)(=O)F)c1 [Compound A15],600 ± 120,,
COc1cccc(C=CC=C(Br)S(=O)(=O)F)c1 [Compound A16],300 ± 40,35.9 ± 1.4,
O=S(=O)(F)C(Br)=CC=Cc1cccc(C(F)(F)F)c1 [Compound A17],430 ± 30,12.1 ± 0.7,
O=S(=O)(F)C(Br)=CC=Cc1ccc(Cl)nc1 [Compound A18],,,inhibition at 20 µM [3]: 14.3 ± 0.9%; inhibition at 20 µM (BuChE from equine serum): 42.8 ± 3.6%; IC50 (AChE from electric eel): 79 ± 2 nM
Cc1ccc(S(=O)(=O)n2cc(C=CC=C(Br)S(=O)(=O)F)c3ccccc32)cc1 [Compound A19],,46.2 ± 0.4,inhibition at 20 µM (BuChE from equine serum): 46 ± 1.6%
O=S(=O)(F)C(Br)=CC=CC=Cc1ccccc1 [Compound A20],12500,,inhibition at 20 µM (AChE from electric eel): 18.7 ± 2.4%
O=S(=O)(F)/C(Cl)=C/C=C/c1ccccc1 [Compound B1],440 ± 40,35.9 ± 1.4,
O=S(=O)(F)/C(Cl)=C/C=C/c1ccc(F)cc1 [Compound B2],510 ± 10,18.7 ± 1.7,
COc1ccc(/C=C/C=C(\Cl)S(=O)(=O)F)cc1 [Compound B4],540 ± 190,30.1 ± 3.8,
COc1ccccc1/C=C/C=C(\Cl)S(=O)(=O)F [Compound B5],130 ± 10,34.2 ± 0.4,

SMILES,IC50 (BuChE from equine serum) [nM],inhibition at 20 µM (AChE from electric eel; [5]) [%],other results
O=S(=O)(F)/C(Cl)=C/C=C/c1cccc(C(F)(F)F)c1 [Compound B6],500 ± 210,26.8 ± 2.7,
"O=S(=O)(F)/C(I)=C/C=C/c1ccccc1 [Compound C1, δ-phenyl-α-I-dienyl sulphonyl fluoride]",1760 ± 620,23.4 ± 2.8,
O=S(=O)(F)/C(I)=C/C=C/c1ccc(F)cc1 [Compound C2],450 ± 30,17 ± 1.7,
O=S(=O)(F)/C(I)=C/C=C/c1ccc(Cl)cc1 [Compound C3],3070 ± 1720,38.9 ± 2.5,
O=S(=O)(F)/C(I)=C/C=C/c1ccc(Br)cc1 [Compound C4],570 ± 30,10.5 ± 3.6,
COc1ccccc1/C=C/C=C(\I)S(=O)(=O)F [Compound C5],190 ± 40,39.5 ± 0.3,
O=S(=O)(F)/C(I)=C/C=C/c1cccc(C(F)(F)F)c1 [Compound C6],500 ± 40,24 ± 6,
CCc1ccc(/C(=C\C=C\c2ccccc2)S(=O)(=O)F)cc1 [Compound D1],1180 ± 330,25.1 ± 1.6,
CSc1ccc(/C(=C\C=C\c2ccccc2)S(=O)(=O)F)cc1 [Compound D2],,25.5 ± 0.4,inhibition at 20 µM (BuChE from equine serum): 28.2 ± 1.89%
COc1ccc(/C(=C\C=C\c2ccccc2)S(=O)(=O)F)cc1 [Compound D3],,47.9 ± 0.4,inhibition at 20 µM (BuChE from equine serum): 33.7 ± 1.8%
O=S(=O)(F)/C(=C/C=C/c1ccccc1)c1ccc(Oc2ccccc2)cc1 [Compound D4],,36.7 ± 2.8,inhibition at 20 µM (BuChE from equine serum): 41.2 ± 1.1%
O=S(=O)(F)/C(=C/C=C/c1ccccc1)c1ccc(Br)cc1 [Compound D5],,29 ± 3.4,inhibition at 20 µM (BuChE from equine serum): 30.5 ± 0.9%
O=C(Oc1ccc(/C(=C\C=C\c2ccccc2)S(=O)(=O)F)cc1)c1ccccc1 [Compound D6],,18.7 ± 2.1,inhibition at 20 µM (BuChE from equine serum): 29.7 ± 3.8%
O=S(=O)(F)/C(=C/C=C/c1ccccc1)c1ccc2ccccc2c1 [Compound D7],,42.3 ± 0.5,inhibition at 20 µM (BuChE from equine serum): 7.4 ± 0.2%
O=S(=O)(F)/C(C#Cc1cccc(Br)c1)=C/C=C/c1ccccc1 [Compound D8],4560 ± 2650,,IC50 (AChE from electric eel; [6]): 2730 ± 100 nM
O=S(=O)(F)/C(C#Cc1ccccc1F)=C/C=C/c1ccccc1 [Compound D9],,47.7 ± 1.9,inhibition at 20 µM (BuChE from equine serum): 31.7 ± 1%
O=S(=O)(F)/C(C#Cc1ccc(Br)cc1)=C/C=C/c1ccccc1 [Compound D10],,36.9 ± 1.2,inhibition at 20 µM (BuChE from equine serum): 22.6 ± 0.7%
O=S(=O)(F)/C(C#Cc1ccccc1)=C/C=C/c1ccccc1 [Compound D11],,30.4 ± 0.1,inhibition at 20 µM (BuChE from equine serum): 24.3 ± 0.4%
Cc1ccc(C#C/C(=C\C=C\c2ccccc2)S(=O)(=O)F)cc1 [Compound D12],,43.5 ± 4,inhibition at 20 µM (BuChE from equine serum): 34.7 ± 0.1%
O=S(=O)(F)/C(C#Cc1ccsc1)=C/C=C/c1ccccc1 [Compound D13],,14.7 ± 0.2,inhibition at 20 µM (BuChE from equine serum): 31.3 ± 0.4%
O=S(=O)(F)/C(C#CC1CC1)=C/C=C/c1ccccc1 [Compound D14],430 ± 80,,IC50 (AChE from electric eel; [6]): 1540 ± 320 nM
"COc1cc2c(cc1OC)C(=O)C(CC1CCN(Cc3ccccc3)CC1)C2 (centres unmarked) [Donepezil, donepezil, reference compound]",,,effect on Aβ1-42-induced cognitive dysfunction (MWM) [4]: significantly improved
"CN1C(C(=O)Nc2ccccn2)=C(O)c2ccccc2S1(=O)=O [Piroxicam, reference compound]",,,Papp (in vitro; [7]): 9.87 ×10⁻⁶ cm/s; Pe×10^-6cm/s BibL. value [1]: 9.3 ×10^-6cm/s; BBB penetration [2]: CNS+ (“CNS +” (high BBB permeation): Pe (× 10^‒6 cm/s) >4.0)
"CC(=O)[C@H]1CC[C@H]2[C@@H]3CCC4=CC(=O)CC[C@]4(C)[C@H]3CC[C@]12C [Progesterone, reference compound]",,,Papp (in vitro; [7]): 18.2 ×10⁻⁶ cm/s; BBB penetration [2]: CNS+ (“CNS +” (high BBB permeation): Pe (× 10^‒6 cm/s) >4.0)
